Results reported in publication PMC3741113, “De-Novo Design of Antimicrobial Peptides for Plant Protection” (PLoS ONE, 2013).
Values joined by “and” are separate entries in the source; they are usually repeats but may differ in a detail not shown here. Equal values may be shown once. Read-outs that look alike come from different tables or passages of the source. Ends that are not written are not given here.

What was measured:
tested plant pathogens = assay: Microdilution assay, activity summarised over several tested plant pathogens; format: cell-based; settings: for active concentrations (MIC): statement over some / the majority of the tested plant pathogens or bacteria
Protocol: In-vitro inhibition assays were performed in sterile flat-bottom 96-well polypropylene-plates (Greiner bio-one, Frickenhausen, Germany). 10 µl (antibacterial assay) or 20 µl (antifungal assay) of each concentration were loaded per well. Fresh bacterial colonies were transferred into LB-medium, grown to an OD600 nm of 0.08–0.1 and diluted 1∶100 with medium. 90 µl of this suspension containing about 10^5 CFU/ml of bacteria were added to each well resulting in final peptide concentrations from 0 to 100 µg/ml. After incubation at 27°C for 1–2d bacterial growth was analyzed by measuring the OD590 nm using a Tecan Genios microplate reader (Crailsheim, Germany).
Spores of plant pathogenic fungi were collected by washing sporulating cultures with water. Spore concentration was determined by haematocytometer and adjusted to 1.5–2×10^3 spores/ml in 2% malt extract medium. 80 µl of fungal spores were added per well resulting in final peptide concentrations from 0 to 100 µg/ml. After incubation at room temperature for 3d on a rotary shaker (300 rpm), fungal growth was determined by measuring the OD590 nm (Alternaria sp.) or by visual screening of the plates (Botrytis sp., Cladosporium sp.). The lowest peptide concentration, where no visible microbial growth could be detected, was determined for each organism-peptide combination and referred to as the minimal inhibitory concentration (MIC). At least two independent replicates were performed.

Botrytis cinerea = settings: 2% malt extract medium, 1.5–2×10^3 spores/ml, room temperature, 3d, visual screening; lowest concentration with no visible growth; at least two independent replicates
Alternaria alternata = settings: 2% malt extract medium, 1.5–2×10^3 spores/ml, room temperature, 3d, OD590 nm; lowest concentration with no visible growth; at least two independent replicates
Cladosporium herbarum = settings: 2% malt extract medium, 1.5–2×10^3 spores/ml, room temperature, 3d, visual screening; lowest concentration with no visible growth; at least two independent replicates
[1] = system: Clavibacter michiganensis ssp. michiganensis; settings: LB-medium, 27°C
[2] = system: Pectobacterium carotovorum ssp. carotovorum; settings: LB-medium, 27°C
Xanthomonas vesicatoria = settings: LB-medium, 27°C
[3] = system: Pseudomonas syringae pv. tomato; settings: LB-medium, 27°C
[4] = system: Pseudomonas syringae pv. syringae; settings: LB-medium, 27°C
Pseudomonas corrugata = settings: LB-medium, 27°C
human erythrocytes [5] = assay: Hemolytic activity (hemoglobin release); format: cell-based
Protocol: The hemolytic activity of the peptides was evaluated by determining hemoglobin release of suspensions of fresh human erythrocytes at 405 nm. Human red blood cells (Deutscher Blutspendedienst, München, Germany) were centrifuged and washed three times with Tris-buffer (10 mM Tris, 150 mM NaCl, pH 7.4). 80 µl of cells (1.5×10^9 cells/ml) were added to 20 µl of the peptide solution in 96-well plates and incubated for 45 min at 37°C. Final peptide concentrations were 0, 20, 50, 100 and 200 µg/ml. After centrifugation (1,500 g, 5 min, 20°C) 30 µl aliquots of the supernatant were transferred to 96-well plates containing 100 µl of water and released hemoglobin was determined using a microplate reader (OD405 nm). 100% hemolysis was determined with 2% SDS.

[6] = system: Arabidopsis mesophyll protoplasts; assay: Phytotoxicity on plant protoplasts; format: cell-based; settings: 1 h incubation, light microscope; for Phytotoxicity: peptide concentration where protoplasts show first signs of cytoplasmic degradation: 0, 10, 100, 200 µg/ml
Protocol: Phytotoxicity was measured on Arabidopsis mesophyll protoplasts prepared from leaves as described in [80]. 80 µl protoplast suspension containing about 5000 protoplasts were incubated with 20 µl peptide solution. Final peptide concentrations were 0, 10, 100 and 200 µg/ml. The phytotoxic effect of antimicrobial peptides was observed after 1 h with a light microscope. Hints to cell death are loss of spherical shape, chloroplast release and/or agglomeration of protoplasts.

[7] = system: P. syringae pv. tomato DC3000; settings: peptide concentrations up to 100 µg/ml, sprayed; cfu 30 min after treatment
P. syringae = settings: Table S5; 10 µg/ ml peptide; organism P. syringae pv syrimgae [sic]
human erythrocytes [8] = settings: cited from earlier work
[9] = about 10^5 CFU/ml, 1–2d, OD590 nm, at least two independent replicates

Compound	MIC (Botrytis cinerea) [µg/mL]	MIC (Alternaria alternata) [µg/mL]	MIC (Cladosporium herbarum) [µg/mL]	MIC [1, 9] [µg/mL]	MIC [2, 9] [µg/mL]	MIC (Xanthomonas vesicatoria; [9]) [µg/mL]	MIC [3, 9] [µg/mL]	MIC [4, 9] [µg/mL]	MIC (Pseudomonas corrugata; [9]) [µg/mL]	also measured
RKKRLKLLKRLV-NH2 [SP1]	>100	>100	10							active concentrations (MIC) (tested plant pathogens): 1 to 5 µg/mL and 1 to 2 µg/mL
RKRFARFAKRAV-NH2 [SP3]	>100	>100	40	20	>40	>40	5	>40	>40	
LRKLKKILKKLF-NH2 [SP10-10]										Hemolytic activity: peptide concentration leading to 25% hemoglobin release from human blood cells (human erythrocytes [5]; Table 4, 45 min, 37°C, highest concentration tested 200 µg/ml): – (no value indicates none detectable hemolytic activity up to the highest concentration tested); MIC ([1]; Table 4, incubation period 2d): 0.25 µg/mL; MIC ([2]; Table 4, incubation period 1d): 2.5 µg/mL; MIC (Xanthomonas vesicatoria; Table 4, incubation period 2d): 0.1 µg/mL; MIC ([3]; Table 4, incubation period 1d): 0.5 µg/mL; MIC ([4]; Table 4, incubation period 1d): 0.25 µg/mL; MIC (Pseudomonas corrugata; Table 4, incubation period 2d): 0.25 µg/mL
LRFLKKALKKLF-NH2 [SP10-2]										Hemolytic activity: peptide concentration leading to 25% hemoglobin release from human blood cells (human erythrocytes [5]): > 200 µg/mL; phytotoxicity to plant protoplasts (in words) [6]: very low phytotoxicity; Phytotoxicity: peptide concentration where protoplasts show first signs of cytoplasmic degradation [6]: 200 µg/mL; MIC ([1]; Table 4, incubation period 2d): 0.25 µg/mL; MIC ([2]; Table 4, incubation period 1d): 1.0 µg/mL; MIC (Xanthomonas vesicatoria; Table 4, incubation period 2d): 0.25 µg/mL; MIC ([3]; Table 4, incubation period 1d): 0.5 µg/mL; MIC ([4]; Table 4, incubation period 1d): 0.1 µg/mL; MIC (Pseudomonas corrugata; Table 4, incubation period 2d): 0.5 µg/mL; growth inhibition on tomato leaves [7]: 90%; Growth inhibition of bacteria/fungi on leaf surface (P. syringae): 50%
KRKLIFLAAFLAALALFKKR-NH2 [SP15]	>100	>100	40	2.5	>40	20	40	>40	>40	phytotoxicity to plant protoplasts (in words) [6]: highly ph ytotoxic
LRALAKALKHKL-NH2 [SP11]	>100	>100	20	>40	>40	>40	5	>40	10	
KRKLTLVFGVMAGVIGTKKR-NH2 [SP14]	>100	>100	100	20	>40	>40	40	>40	>40	
LLIKFLKRFIKH-NH2 [SP7-D]	20	5	5	5	40	10			5	
RKRAARLLKRLV-NH2 [SP2]	>100	>100	20	2	>40	2	2	2	5	active concentrations (MIC) (tested plant pathogens): 1 to 5 µg/mL and 1 to 2 µg/mL
KRRLAAFRAFRGALKSVLKK-NH2 [SP16]	>100	>100	20	5	>40	5	5	5	2.5	
LLKALKKLLKKLL-NH2 [SP9]	>100	>100	40	10	>40	5	10	10	>40	
LRFLKKILKHLF-NH2 [SP10]	>100	>100	10							
RKKRLKLLKRLL-NH2 [SP1-1]										phytotoxicity to plant protoplasts (in words) [6]: very low phytotoxicity; Phytotoxicity: peptide concentration where protoplasts show first signs of cytoplasmic degradation [6]: 200 µg/mL; MIC ([1]; Table 4, incubation period 2d): 2.5 µg/mL; MIC ([2]; Table 4, incubation period 1d): >10 µg/mL; MIC (Xanthomonas vesicatoria; Table 4, incubation period 2d): 0.1 µg/mL; MIC ([4]; Table 4, incubation period 1d): 0.1 µg/mL; MIC (Pseudomonas corrugata; Table 4, incubation period 2d): <0.1 µg/mL; growth inhibition on tomato leaves [7]: 90%; Growth inhibition of bacteria/fungi on leaf surface (P. syringae): 40%
RKKRLKLLKR LV-NH2 [SP1-D]	> 40	20	20	40	> 40	40	5	5	20	
LRIIKKILKKLI-NH2 [SP10-5]										phytotoxicity to plant protoplasts (in words) [6]: very low phytotoxicity; Phytotoxicity: peptide concentration where protoplasts show first signs of cytoplasmic degradation [6]: 200 µg/mL; MIC ([1]; Table 4, incubation period 2d): 0.5 µg/mL; MIC ([2]; Table 4, incubation period 1d): 2.5 µg/mL; MIC (Xanthomonas vesicatoria; Table 4, incubation period 2d): 0.25 µg/mL; MIC ([3]; Table 4, incubation period 1d): 0.25 µg/mL; MIC ([4]; Table 4, incubation period 1d): 0.5 µg/mL; MIC (Pseudomonas corrugata; Table 4, incubation period 2d): 0.5 µg/mL; growth inhibition on tomato leaves [7]: 90%; Growth inhibition of bacteria/fungi on leaf surface (P. syringae): 70%
CC(C)C[C@H](NC(=O)[C@H](CCCNC(=N)N)NC(=O)CNC(=O)CNC(=O)[C@@H](N)CCCNC(=N)N)C(=O)N[C@H]1CSSC[C@@H](C(=O)N[C@H](C(=O)NCC(=O)N[C@@H](CCCNC(=N)N)C(N)=O)C(C)C)NC(=O)[C@H](C(C)C)NC(=O)[C@@H]2CSSC[C@H](NC(=O)[C@H](Cc3ccc(O)cc3)NC1=O)C(=O)N[C@@H](CCCNC(=N)N)C(=O)N[C@@H](CCCNC(=N)N)C(=O)N[C@@H](CCCNC(=N)N)C(=O)N[C@@H](Cc1ccccc1)C(=O)N2 [Protegrin I, reference compound]										hemoglobin release (human erythrocytes [5]; 50 µg/ml peptide, human red blood cells): 25%; Activity range: peptide concentrations necessary to inhibit growth of the listed bacteria strains (tested plant pathogens; Table S5, strains listed under strain specificity): 1 to 8 µg/mL; Hemolytic activity (human erythrocytes [8]): < 80 µg/mL; Hemolytic activity: peptide concentration leading to 25% hemoglobin release: 50 µg/mL
LKALRKALKHLA-NH2 [SP12]	>100	>100	20	>40	>40	20	2.5	10	>40	Hemolytic activity: peptide concentration leading to 25% hemoglobin release from human blood cells (human erythrocytes [5]; 45 min, 37°C, Tris-buffer pH 7.4, 0, 20, 50, 100, 200 µg/ml, OD405 nm, 100% = 2% SDS, >200 = slight hemolytic activity at 200 µg/ml below threshold): >200 µg/mL
KKKAARALKRAL-NH2 [SP4]	>100	>100	40	40	>40	>40	10	>40	>40	
KRRLIARILRLAARALVKKR-NH2 [SP13]	>100	>100	20							
